Assay type in all cases: cell-based
One assay concerns SW48 (wt) cells. Briefly: Cell viability assay (CELLTITER-GLO), SW48 cells. Particulars: Homo sapiens, 72 h, 3 days at 37° C., CELLTITER-GLO luminescence, read-out: Inhibition of Cancerous Cells IC50 (μM) SW48 (wt). Here is the method:
(§1) AsPC-1, 1358, and SW48 cells were cultured in RPMI 1640 media supplemented with 10% fetal bovine serum, streptomycin, and penicillin. Lovo and SW480 cells were cultured in DMEM media supplemented with 10% fetal bovine serum, streptomycin, and penicillin. The cell lines were plated in their respective medium supplemented with 2.5% fetal bovine serum, streptomycin, and penicillin. All cell lines were plated in white walled 96-well plates at 2,000 cells/well or 384-well plates at 500 cells/well, except Lovo, which were plated at 4,000 or 1,000 cells/well, respectively. The cells were incubated in DMSO (control) or a compound for 3 days at 37° C. under 5% CO2. A CELLTITER-GLO® reagent (100 μL) was then added to each well. After a 10 min incubation with shaking, luminescence was measured using an ENVISION® multimode plate reader.
In general terms: Cellular ATP, detected with luciferase, serves as a proxy for viable cell number.

Another assay relates to Lovo (G13D) cells. In words: Cell viability assay (CELLTITER-GLO), Lovo cells. To be noted: Homo sapiens, 72 h, 3 days at 37° C., CELLTITER-GLO luminescence, read-out: Inhibition of Cancerous Cells IC50 (μM) Lovo (G13D). As for the experimental part: as §1
The test system of the next assay is SW480 (G12V) cells. In words: Cell viability assay (CELLTITER-GLO), SW480 cells. Particulars: Homo sapiens, 72 h, 3 days at 37° C., CELLTITER-GLO luminescence, read-out: Inhibition of Cancerous Cells IC50 (μM) SW480 (G12V). Here is the method:
as §1

For the next assay, the system named is AsPC-1 (G12D) cells. Briefly: Cell viability assay (CELLTITER-GLO), AsPC-1 cells. Particulars: Homo sapiens, ASPC1, 72 h, 3 days at 37° C., CELLTITER-GLO luminescence, read-out: Inhibition of Cancerous Cells IC50 (μM) AsPC-1 (G12D). Here is the method: as §1
For a further assay, the system named is H358 (G12C) cells. In words: Cell viability assay (CELLTITER-GLO), H358 cells. Particulars: Homo sapiens, NCI-H358, 72 h, 3 days at 37° C., CELLTITER-GLO luminescence, read-out: Inhibition of Cancerous Cells IC50 (μM) H358 (G12C). Here is the method:
as §1

For orientation: IC50 means the concentration needed to halve the response being measured.

In the case of `COc1cc2c(N[C@@H](C)c3cccc(Br)c3)nc(C)nc2cc1OCCCCCCCCCN1CCN(C(=O)CNc2cccc3c(N4CCC(=O)NC4=O)nn(C)c23)CC1` [Compound D9, (S)-1-(7-((2-(4-(9-((4-((1-(3-Bromophenyl)ethyl)amino)-6-methoxy-2-methyl-quinazolin-7-yl)oxy)nonyl)piperazin-1-yl)-2-oxoethyl)amino)-1-methyl-1H-indazol-3-yl)dihydropyrimidine-2,4(1H,3H)-dione], the half-inhibitory concentration (IC50) is 2.5 µM in the assay on SW48 (wt) cells; 1.9 µM in the assay on Lovo (G13D) cells; 1.1 µM in the assay on SW480 (G12V) cells; 4.7 µM with AsPC-1 (G12D) cells; 4.5 µM with H358 (G12C) cells.

With `COc1cc2c(N[C@H](C)c3cccc(Br)c3)nc(C)nc2cc1OCCCCCCCCCN1CCN(C(=O)CNc2ccc3c(N4CCC(=O)NC4=O)nn(C)c3c2)CC1` [Compound D8, (R)-1-(6-((2-(4-(9-((4-((1-(3-Bromophenyl)ethyl)amino)-6-methoxy-2-methyl-quinazolin-7-yl)oxy)nonyl)piperazin-1-yl)-2-oxoethyl)amino)-1-methyl-1H-indazol-3-yl)-dihydropyrimidine-2,4(1H,3H)-dione], the 50% inhibitory concentration (IC50) amounted to 0.4 µM with SW48 (wt) cells; 1.2 µM with Lovo (G13D) cells; 0.35 µM in the assay with SW480 (G12V) cells; 1.7 µM with AsPC-1 (G12D) cells; 6.1 µM in the assay with H358 (G12C) cells.

As for `COc1cc2c(N[C@H](C)c3cccc(Br)c3)nc(C)nc2cc1OCCCCCCCCCN1CCN(C(=O)COc2ccc(N3CCC(=O)NC3=O)cc2)CC1` [Compound C2, (R)-1-(4-(2-(4-(9-((4-((1-(3-Bromophenyl)ethyl)amino)-6-methoxy-2-methyl-quinazolin-7-yl)oxy)nonyl)piperazin-1-yl)-2-oxoethoxy)phenyl)dihydropyrimidine-2,4(1H,3H)-dione], the IC50 was 1.6 µM in the assay with SW48 (wt) cells; 0.55 µM in the assay on Lovo (G13D) cells; 0.66 µM in the assay on SW480 (G12V) cells; 1.6 µM in the assay on AsPC-1 (G12D) cells; 1.4 µM in the assay with H358 (G12C) cells.

As to `COc1cc2c(N[C@H](C)c3cccc(Br)c3)nc(C)nc2cc1OCCCCCCCN1CCN(C(=O)COc2ccc(N3CCC(=O)NC3=O)cc2)CC1` [Compound C1, (R)-1-(4-(2-(4-(7-((4-((1-(3-Bromophenyl)ethyl)amino)-6-methoxy-2-methyl-quinazolin-7-yl)oxy)heptyl)piperazin-1-yl)-2-oxoethoxy)phenyl)dihydropyrimidine-2,4(1H,3H)-dione], the IC50 in the assay on SW48 (wt) cells amounted to 2.2 µM; in the assay on Lovo (G13D) cells, 0.69 µM; in the assay on SW480 (G12V) cells it was 1.7 µM; in the assay with AsPC-1 (G12D) cells, 2.3 µM; in the assay on H358 (G12C) cells, 1.9 µM.

Turning to `COc1cc2c(N[C@H](C)c3cccc(Br)c3)nc(C)nc2cc1OCCCCCCCCCCCN1CCN(C(=O)COc2ccc(N3CCC(=O)NC3=O)cc2)CC1` [Compound C3, (R)-1-(4-(2-(4-(11-((4-((1-(3-Bromophenyl)ethyl)amino)-6-methoxy-2-methyl-quinazolin-7-yl)oxy)undecyl)piperazin-1-yl)-2-oxoethoxy)phenyl)dihydropyrimidine-2,4(1H,3H)-dione], the concentration for half-maximal inhibition (IC50) with SW48 (wt) cells worked out at 2.1 µM; in the assay with Lovo (G13D) cells it was 0.93 µM; with SW480 (G12V) cells, 0.66 µM; in the assay with AsPC-1 (G12D) cells, 2.1 µM; in the assay with H358 (G12C) cells it was 3.4 µM.

Take `COc1cc2c(N[C@H](C)c3cccc(Br)c3)nc(C)nc2cc1OCCCCCCCCCCCN1CCN(C(=O)CNc2cccc3c(N4CCC(=O)NC4=O)nn(C)c23)CC1` [Compound D10, (R)-1-(7-((2-(4-(11-((4-((1-(3-Bromophenyl)ethyl)amino)-6-methoxy-2-methyl-quinazolin-7-yl)oxy)undecyl)piperazin-1-yl)-2-oxoethyl)amino)-1-methyl-1H-indazol-3-yl)-dihydropyrimidine-2,4(1H,3H)-dione]: the IC50 is more than 10 µM in the assay on SW48 (wt) cells; 1.4 µM in the assay with Lovo (G13D) cells; 1.2 µM with SW480 (G12V) cells; more than 10 µM in the assay with AsPC-1 (G12D) cells; more than 10 µM in the assay with H358 (G12C) cells.

For `COc1cc2c(N[C@H](C)c3cccc(Br)c3)nc(C)nc2cc1OCCCCCN1CCN(C(=O)CNc2ccc(C3CCC(=O)NC3=O)cc2)CC1` (stereo partly drawn) [Compound B8, 3-(4-((2-(4-(5-((4-(((R)-1-(3-Bromophenyl)ethyl)amino)-6-methoxy-2-methyl-quinazolin-7-yl)oxy)pentyl)piperazin-1-yl)-2-oxoethyl)amino)phenyl)piperidine-2,6-dione], the half-maximal inhibitory concentration (IC50) in the assay with SW48 (wt) cells turned out to be 1.1 µM; in the assay with Lovo (G13D) cells, 1.3 µM; with SW480 (G12V) cells, 1.1 µM; in the assay on AsPC-1 (G12D) cells, 2.8 µM; with H358 (G12C) cells, 1.7 µM.

On to `COc1cc2c(N[C@H](C)c3cccc(Br)c3)nc(C)nc2cc1OCCCCCCCN1CCN(C(=O)COc2cccc(N3CCC(=O)NC3=O)c2)CC1` [Compound C4, (R)-1-(3-(2-(4-(7-((4-((1-(3-Bromophenyl)ethyl)amino)-6-methoxy-2-methyl-quinazolin-7-yl)oxy)heptyl)piperazin-1-yl)-2-oxoethoxy)phenyl)dihydropyrimidine-2,4(1H,3H)-dione], for which the half-maximal inhibitory concentration (IC50) with SW48 (wt) cells worked out at 1.3 µM; with Lovo (G13D) cells, 0.94 µM; with SW480 (G12V) cells, 0.73 µM; in the assay on AsPC-1 (G12D) cells, 1.4 µM; in the assay on H358 (G12C) cells, 1.2 µM.

(Values after patent US20240174643A1, “SOS1 PROTEIN DEGRADERS, PHARMACEUTICAL COMPOSITIONS THEREOF, AND THEIR THERAPEUTIC APPLICATIONS” (Bio TheryX, Inc., priority 2021, published 2024).)
